The test system of one assay is biofilm. The assay is described as follows: confocal laser scanning microscopy (CLSM) of biofilm thickness. In kind it is cell-based, halitosis subjects (saliva). Here is the method: Lysate group: A HA disc was placed in a 96-well plate. 10 µl of saliva was added to the 96-well plate, followed by separate addition of ET-22 viable bacteria (1.0×10^9 CFU/ml), ET-22 heat-inactivated bacterial cells (obtained by inactivating viable bacteria at 1.0×10^9 CFU/ml), and lysate (obtained by inactivating and filtering viable bacteria at 1.0×10^9 CFU/ml), each at 10 µl. Then, 80 µl of SHI medium was added. The 96-well plate was placed in an anaerobic box and cultured anaerobically at 37°C for 10 hours.
NAD group: A HA disc was placed in a 96-well plate. 10 µl of saliva was added to the 96-well plate, followed by separate addition of ET-22 viable bacteria (1.0×10^9 CFU/ml), ET-22 heat-inactivated bacterial cells (obtained by heat-inactivating viable bacteria at 1.0×10^9 CFU/ml), and NAD (100 µg/ml), each at 10 µl. Then, 80 µl of SHI medium was added. The 96-well plate was placed in an anaerobic box and cultured anaerobically at 37°C for 10 hours.
2-hydroxy-3-phenylpropionic acid group: A HA disc was placed in a 96-well plate. 10 µl of saliva was added to the 96-well plate, followed by separate addition of ET-22 viable bacteria (1.0×10^9 CFU/ml), ET-22 heat-inactivated bacterial cells (obtained by heat-inactivating viable bacteria at 1.0×10^9 CFU/ml), and 2-hydroxy-3-phenylpropionic acid (100 µg/ml), each at 10 µl. Then, 80 µl of SHI medium was added. […]

Another assay deals with multi-species biofilm. Description: biomass of multi-species biofilm, crystal violet staining. The assay is classed as cell-based, halitosis subjects (saliva). Here is the method:
The association between biofilm biomass and halitosis degree were analyzed by evaluating biofilm formation under intervention with ET-22 viable bacteria, heat-inactivated bacteria, lysate, NAD, 2-hydroxy-3-phenylpropionic acid and peptidoglycan. Test method included the following.
Lysate Group: 10 µl of saliva was added to a 96-well plate, followed by separate addition of ET-22 viable bacteria (1.0×10^9 CFU/ml), ET-22 heat-inactivated bacterial cells (obtained by inactivating viable bacteria at 1.0×10^9 CFU/ml), and lysate (obtained by inactivating and filtering viable bacteria at 1.0×10^9 CFU/ml), each at 100 µl. Then, 80 µl of SHI medium was added. The plate was placed in an anaerobic box and cultured anaerobically at 37°C for 10 hours. Six replicates were set for each group.
NAD Group: 10 µl of saliva was added to a 96-well plate, followed by separate addition of ET-22 viable bacteria (1.0×10^9 CFU/ml), ET-22 heat-inactivated bacterial cells (obtained by heat-inactivating viable bacteria at 1.0×10^9 CFU/ml), and NAD (100 µg/ml), each at 100 µl. Then, 80 µl of SHI medium was added. The plate was placed in an anaerobic box and cultured anaerobically at 37°C for 10 hours. Six replicates were set for each group. […]
(5) The well plate was placed in a microplate reader and the biofilm biomass was measured at 600 nm.

We go through 1 molecule from patent EP4772186A1, “USE AND COMPOSITION OF POSTBIOTIC OF LACTOBACILLUS PARACASEI ET-22” (Inner Mongolia Yili Industrial Group Co., Ltd., priority 2023, dated 2025).

As to `O=C(O)C(O)Cc1ccccc1` (stereo not shown) [2-hydroxy-3-phenylpropionic acid], in the assay with biofilm (compared with CK group, HA disc, pure components 100 µg/ml, others from 1.0×10^9 CFU/ml, 37°C 10 hours), the biofilm thickness result is “significantly reduce the biofilm thickness”. Also, the “intervention effect on biofilm thickness” value in the assay on biofilm (relative to ET-22 viable bacteria and ET-22 heat-inactivated bacteria) is reported as “superior”. Besides, in the assay with multi-species biofilm (compared with CK group, optical density, pure components 100 µg/ml, others from 1.0×10^9 CFU/ml, 37°C 10 hours), the biofilm biomass entry is “significant decrease”. Moreover, the “intervention effect on the biofilm biomass” value in the assay with multi-species biofilm (relative to ET-22 viable bacteria and heat-inactivated bacteria) is on record as “better”.
